{"source": "patent US8735609B2", "about": "“Bryostatin analogues, synthetic methods and uses” (The Board of Trustees of the Leland Stanford Junior …, priority 2007, dated 2014)", "key": {"NCI/ADR-RES": {"system": "NCI/ADR-RES", "type": "cell-based, human", "conditions": "Homo sapiens, Breast, read-out: Growth inhibition (GI50) (converted)"}, "SF-539": {"system": "SF-539", "assay": "NCI human cancer cell line growth inhibition: SF-539 (CNS)", "type": "cell-based", "conditions": "Homo sapiens"}, "SNB-75": {"system": "SNB-75", "assay": "NCI human cancer cell line growth inhibition: SNB-75 (CNS)", "type": "cell-based", "conditions": "Homo sapiens"}, "HCT-15": {"system": "HCT-15", "assay": "NCI human cancer cell line growth inhibition: HCT-15 (Colon)", "type": "cell-based", "conditions": "Homo sapiens"}, "PC-3": {"system": "PC-3", "assay": "NCI human cancer cell line growth inhibition: PC-3 (Prostate)", "type": "cell-based", "conditions": "Homo sapiens"}, "MI4": {"system": "MI4", "assay": "NCI human cancer cell line growth inhibition: MI4 (Melanoma)", "type": "cell-based", "conditions": "Homo sapiens"}, "IGROVI": {"system": "IGROVI", "assay": "NCI human cancer cell line growth inhibition: IGROVI (Ovarian)", "type": "cell-based", "conditions": "Homo sapiens"}, "MCF7": {"system": "MCF7", "assay": "NCI human cancer cell line growth inhibition: MCF7 (Breast)", "type": "cell-based", "conditions": "Homo sapiens"}, "SNB-19": {"system": "SNB-19", "assay": "NCI human cancer cell line growth inhibition: SNB-19 (CNS)", "type": "cell-based", "conditions": "Homo sapiens"}, "CAKI-1": {"system": "CAKI-1", "assay": "NCI human cancer cell line growth inhibition: CAKI-1 (Renal)", "type": "cell-based", "conditions": "Homo sapiens"}, "SN12C": {"system": "SN12C", "assay": "NCI human cancer cell line growth inhibition: SN12C (Renal)", "type": "cell-based", "conditions": "Homo sapiens"}, "RPMI-8226": {"system": "RPMI-8226", "assay": "NCI human cancer cell line growth inhibition: RPMI-8226 (Leukemia)", "type": "cell-based", "conditions": "Homo sapiens"}, "OVCAR-8": {"system": "OVCAR-8", "assay": "NCI human cancer cell line growth inhibition: OVCAR-8 (Ovarian)", "type": "cell-based", "conditions": "Homo sapiens"}, "ACHN": {"system": "ACHN", "assay": "NCI human cancer cell line growth inhibition: ACHN (Renal)", "type": "cell-based", "conditions": "Homo sapiens"}, "786-0": {"system": "786-0", "assay": "NCI human cancer cell line growth inhibition: 786-0 (Renal)", "type": "cell-based", "conditions": "Homo sapiens"}, "SK-OV-3": {"system": "SK-OV-3", "assay": "NCI human cancer cell line growth inhibition: SK-OV-3 (Ovarian)", "type": "cell-based", "conditions": "Homo sapiens"}, "HCT-116": {"system": "HCT-116", "assay": "NCI human cancer cell line growth inhibition: HCT-116 (Colon)", "type": "cell-based", "conditions": "Homo sapiens"}, "HT29": {"system": "HT29", "assay": "NCI human cancer cell line growth inhibition: HT29 (Colon)", "type": "cell-based", "conditions": "Homo sapiens, HT-29"}}}
{"compound": "CCCCCCCC(=O)O[C@H]1/C(=C/C(=O)OC)C[C@H]2C[C@H](CO)OC(=O)C[C@H](O)C[C@@H]3CCC[C@H](C[C@@H]4CCO[C@H](/C=C/C(C)(C)[C@]1(O)O2)O4)O3", "note": "[Formula IIa (702.1)]", "values": [{"measurement": "GI50", "setting": "NCI/ADR-RES", "result": 18.2, "unit": "µM"}, {"measurement": "GI50", "setting": "SF-539", "result": 1.7, "unit": "µM"}, {"measurement": "GI50", "setting": "SNB-75", "result": 10.7, "unit": "µM"}, {"measurement": "GI50", "setting": "HCT-15", "result": 17.4, "unit": "µM"}, {"measurement": "GI50", "setting": "PC-3", "result": 2.51, "unit": "µM"}, {"measurement": "GI50", "setting": "MI4", "result": 5.5, "unit": "µM"}, {"measurement": "GI50", "setting": "IGROVI", "result": 13.2, "unit": "µM"}, {"measurement": "GI50", "setting": "MCF7", "result": 3.98, "unit": "µM"}, {"measurement": "GI50", "setting": "SNB-19", "result": 6.31, "unit": "µM"}, {"measurement": "GI50", "setting": "CAKI-1", "result": 2, "unit": "µM"}, {"measurement": "GI50", "setting": "SN12C", "result": 2.57, "unit": "µM"}, {"measurement": "GI50", "setting": "RPMI-8226", "result": 1.51, "unit": "µM"}, {"measurement": "GI50", "setting": "OVCAR-8", "result": 17, "unit": "µM"}, {"measurement": "GI50", "setting": "ACHN", "result": 1.15, "unit": "µM"}, {"measurement": "GI50", "setting": "786-0", "result": 3.47, "unit": "µM"}, {"measurement": "GI50", "setting": "SK-OV-3", "result": 50.1, "unit": "µM"}, {"measurement": "GI50", "setting": "HCT-116", "result": 4.79, "unit": "µM"}, {"measurement": "GI50", "setting": "HT29", "result": 2.82, "unit": "µM"}]}
